Reference: article PMC5569448 (Iranian Journal of Basic Medical Sciences, 2017)

Key:
Type in all cases: biochemical
[1] = biological target: acetylcholinesterase (AChE) (Homo sapiens, UniProt P22303); assay: AChE inhibition by Ellman's method; settings: for inhibition at 35 µM: read-out: AChE % inhibition
[2] = biological target: butyrylcholinesterase (BuChE) (Homo sapiens, UniProt P06276); assay: BuChE inhibition by Ellman's method; settings: for inhibition at 35 µM: read-out: BuChE % inhibition
Sequence of butyrylcholinesterase (BuChE) (P06276 29-602): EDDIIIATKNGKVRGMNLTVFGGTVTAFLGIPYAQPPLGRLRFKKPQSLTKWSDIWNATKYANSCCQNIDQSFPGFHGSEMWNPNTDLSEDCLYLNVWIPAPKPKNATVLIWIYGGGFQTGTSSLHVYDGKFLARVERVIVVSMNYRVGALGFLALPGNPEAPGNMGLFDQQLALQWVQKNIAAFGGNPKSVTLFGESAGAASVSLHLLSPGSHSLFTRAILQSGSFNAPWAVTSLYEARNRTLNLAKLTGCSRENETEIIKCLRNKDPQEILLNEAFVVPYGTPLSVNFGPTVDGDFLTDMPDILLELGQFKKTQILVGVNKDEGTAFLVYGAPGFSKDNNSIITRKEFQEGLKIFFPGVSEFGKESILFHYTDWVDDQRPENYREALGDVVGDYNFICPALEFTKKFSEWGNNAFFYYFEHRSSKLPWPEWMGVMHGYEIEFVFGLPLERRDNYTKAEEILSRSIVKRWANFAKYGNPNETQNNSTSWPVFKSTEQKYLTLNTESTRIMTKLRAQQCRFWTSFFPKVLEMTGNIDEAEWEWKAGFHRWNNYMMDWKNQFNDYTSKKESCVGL

AChE = AChE (Homo sapiens, UniProt P22303); assay: Kinetic study of AChE inhibition
Sequence of AChE (P22303 32-614, species assumed): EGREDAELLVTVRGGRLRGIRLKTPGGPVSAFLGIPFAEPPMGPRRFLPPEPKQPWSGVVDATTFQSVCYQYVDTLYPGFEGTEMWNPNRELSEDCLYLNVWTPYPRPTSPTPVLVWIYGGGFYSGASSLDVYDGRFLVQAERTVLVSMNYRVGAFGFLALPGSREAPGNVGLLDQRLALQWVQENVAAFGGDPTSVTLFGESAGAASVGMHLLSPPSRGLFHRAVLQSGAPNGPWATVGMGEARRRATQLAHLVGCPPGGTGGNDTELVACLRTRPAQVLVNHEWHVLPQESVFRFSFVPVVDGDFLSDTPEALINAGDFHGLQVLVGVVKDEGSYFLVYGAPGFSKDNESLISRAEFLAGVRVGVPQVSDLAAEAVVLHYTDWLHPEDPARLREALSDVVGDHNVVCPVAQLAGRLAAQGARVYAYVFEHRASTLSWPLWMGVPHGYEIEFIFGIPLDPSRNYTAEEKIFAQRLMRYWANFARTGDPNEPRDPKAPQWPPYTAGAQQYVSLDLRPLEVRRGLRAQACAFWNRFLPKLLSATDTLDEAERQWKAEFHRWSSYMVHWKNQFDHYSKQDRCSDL

Sequence of acetylcholinesterase (AChE) (P22303 32-614, species assumed): as above

| Compound | IC50 [1] | inhibition at 35 µM [2] | inhibition at 35 µM [1] | IC50 [2] | Ki (AChE) | type of AChE inhibition (AChE; Lineweaver-Burk plot, substrate ATChI) |
| --- | --- | --- | --- | --- | --- | --- |
| CCOC(=O)c1cc2ccc(OCCCCCOc3cccc4cccnc34)cc2oc1=O [Compound 3f, Ethyl 2-oxo-7-((5-(quinolin-8-yloxy)pentyl)oxy)-2H-chromene-3-carboxylate] | 8.94 µM | 29.2% |  |  |  |  |
| O=C(O)c1cc2ccc(OCCCOc3cccc4cccnc34)cc2oc1=O [Compound 3g, 2-Oxo-7-(3-(quinolin-8-yloxy)propoxy)-2H-chromene-3-carboxylic acid] |  | 2% | 15% |  |  |  |
| O=c1cc(-c2ccccc2)c2ccc(NCCCOc3cccc4cccnc34)cc2o1 [Compound 3h, 4-Phenyl-7-((3-(quinolin-8-yloxy)propyl)amino)-2H-chromen-2-one] | 30.2 µM | 37% |  |  |  |  |
| O=c1ccc2ccc(OCCCCOc3cccc4cccnc34)cc2o1 [Compound 3a, 7-(4-(Quinolin-8-yloxy)butoxy)-2H-chromen-2-one] |  |  | 48% | 28.3 µM |  |  |
| O=c1ccc2ccc(OCCCCCOc3cccc4cccnc34)cc2o1 [Compound 3b, 7-((5-(Quinolin-8-yloxy)pentyl)oxy)-2H-chromen-2-one] | 8.8 µM |  |  | 26.5 µM | 1.32 µM | mixed-type inhibition |
| CCOC(=O)c1cc2ccc(OCCCOc3cccc4cccnc34)cc2oc1=O [Compound 3e, Ethyl 2-oxo-7-(3-(quinolin-8-yloxy)propoxy)-2H-chromene-3-carboxylate] | 16.2 µM | 46% |  |  |  |  |
| Cc1cc(=O)oc2cc(OCCCOc3cccc4cccnc34)ccc12 [Compound 3c, 4-Methyl-7-(3-(quinolin-8-yloxy)propoxy)-2H-chromen-2-one] | 11.3 µM |  |  | 32.4 µM |  |  |
| Cc1cc(=O)oc2cc(OCCCCCOc3cccc4cccnc34)ccc12 [Compound 3d, 4-Methyl-7-((5-(quinolin-8-yloxy)pentyl)oxy)-2H-chromen-2-one] | 14 µM | 34.6% |  |  |  |  |
| O=c1ccc2ccc(OCCCCCSc3nc4ccccc4[nH]3)cc2o1 [Compound 3i, 7-((5-((1H-Benzo[d]imidazol-2-yl)thio)pentyl)oxy)-2H-chromen-2-one] | 11.7 µM | 38% |  |  |  |  |
| O=c1ccc2ccc(OCCCCCSc3nc4ccccc4o3)cc2o1 [Compound 3j, 7-((5-(Benzo[d]oxazol-2-ylthio)pentyl)oxy)-2H-chromen-2-one] | 25.4 µM | 14% |  |  |  |  |
| O=c1cc(-c2ccccc2)c2ccc(NCCCSc3nc4ccccc4o3)cc2o1 [Compound 3l, 7-((3-(Benzo[d]oxazol-2-ylthio)propyl)amino)-4-phenyl-2H-chromen-2-one] | 13 µM | 26% |  |  |  |  |
| Cc1cc(=O)oc2cc(OCCCSc3nc4ccccc4o3)ccc12 [Compound 3k, 7-(3-(Benzo[d]oxazol-2-ylthio)propoxy)-4-methyl-2H-chromen-2-one] |  | 11% | 44% |  |  |  |
